The results in this text go back to patent US9895346B2, “Applications of substituent benzyloxy group containing ether compounds for preparing antitumor drugs” (Sinochem Corporation, priority 2013, dated 2018).

Format in all cases: cell-based, human
Assay [1] relates to bladder cancer cell line J82. Kind of assay: In vitro cell inhibition assay (crystal violet), bladder cancer J82. The source says: (§1) In vitro Cell inhibition assay is as follows:
(§2) The human cancer cell lines used for this assay were bladder cancer J82, T24, prostate cancer LNCap, PC-3, lung cancer A549, H157, H460, H520, colon cancer HCT8, HCT116, RkO, and leukemia HL-60, etc.
(§3) In vitro cell culture technology was selected for the determination of inhibition rate bladder cancer cell lines J82 and T24, prostate cancer cell lines LNCap and PC-3, lung cancer cell lines A549, H157, H460 and H520. 1000 to 3000 cells were inoculated to 24-well plate, followed by addition of 1 mL culture medium well known to researchers in this field to each well, the cells were cultured in 5% incubator for 24 hours at 37° C., then the different concentration compounds and controls were added to each well. It should be noted that the added volume is not more than 0.5% of total volume. After completion of addition, the cells continued being cultured in incubator for one week, the culture medium was removed and washed by cold PBS of 1 mL once, and then fixed for 10 minutes at room temperature with 1% formalin, followed by wash with PBS of 1 mL. After fixation, stain was carried out with 0.1% crystal violet for 30 minutes. 0.1% crystal violet was recycled. The stained cells were washed gently with deionized water, dried at room temperature and kepted. The inhibition rate was calculated according to the foiling equation. The controls are Selumetinib (AZD6244), Gefitinib, Cisplatin. Inhibition rate=number of left cells each treatment/number of left cells of untreated control×100%

For assay [2], the system named is bladder cancer cell line T24. Kind of assay: In vitro cell inhibition assay (crystal violet), bladder cancer T24.
Text: as §1, §2, §3

Assay [3] relates to prostate cancer cell line LNCap. Kind of assay: In vitro cell inhibition assay (crystal violet), prostate cancer LNCap.
Text: as §1, §2, §3

Assay [4] concerns prostate cancer cell line PC-3. Kind of assay: In vitro cell inhibition assay (crystal violet), prostate cancer PC-3.
Text: as §1, §2, §3

The test system of assay [5] is lung cancer cell line A549. Nature of the assay: In vitro cell inhibition assay (crystal violet), lung cancer A549.
Text: as §1, §2, §3

Assay [6] has as its system lung cancer cell line H460. Kind of assay: In vitro cell inhibition assay (crystal violet), lung cancer H460.
Text: as §1, §2, §3

For assay [7], the system named is lung cancer cell line H520. Kind of assay: In vitro cell inhibition assay (crystal violet), lung cancer H520.
Text: as §1, §2, §3

The next assay relates to colon cancer HCT8. Nature of the assay: In vitro cell inhibition assay, colon cancer HCT8.
Text: as §1, §2

The next assay has as its system colon cancer HCT116. Kind of assay: In vitro cell inhibition assay, colon cancer HCT116.
Text: as §1, §2

The next assay deals with colon cancer RkO. Kind of assay: In vitro cell inhibition assay, colon cancer RkO.
Text: as §1, §2

In the case of `CO/C=C(/C(=O)OC)c1ccccc1COc1cc(C(F)(F)F)nc(Nc2ccc(Cl)cc2Cl)n1` [compound A, reference compound], the inhibition – broadly, how much of the control response was suppressed – at 0.25 µM in assay [1] (Homo sapiens, J82, 0.25 μM, read-out: Inhibition rate on human cancer cells) was 0%. Besides, the inhibition at 0.5 µM in assay [1] (Homo sapiens, J82, 0.5 μM, read-out: Inhibition rate on human cancer cells) was 50%; in [2] (Homo sapiens, T24, 0.5 μM, read-out: Inhibition rate on human cancer cells) it was 0%; in [3] (Homo sapiens, 0.5 μM, read-out: Inhibition rate on human cancer cells), 0%; in assay [4] (Homo sapiens, PC-3, 0.5 μM, read-out: Inhibition rate on human cancer cells) it was 0%. Besides, the inhibition at 1 µM in [1] (Homo sapiens, J82, 1.0 μM, read-out: Inhibition rate on human cancer cells) came to 95%; in assay [2] (Homo sapiens, T24, 1.0 μM, read-out: Inhibition rate on human cancer cells), 100%; in assay [3] (Homo sapiens, 1.0 μM, read-out: Inhibition rate on human cancer cells), 100%; in assay [4] (Homo sapiens, PC-3, 1.0 μM, read-out: Inhibition rate on human cancer cells), 85%. Besides, the inhibition at 2.5 µM in [1] (Homo sapiens, J82, 2.5 μM, read-out: Inhibition rate on human cancer cells) is 100%; in assay [2] (Homo sapiens, T24, 2.5 μM, read-out: Inhibition rate on human cancer cells) it was 100%; in [3] (Homo sapiens, 2.5 μM, read-out: Inhibition rate on human cancer cells), 100%; in assay [4] (Homo sapiens, PC-3, 2.5 μM, read-out: Inhibition rate on human cancer cells), 100%. The inhibition at 5 µM in [1] (Homo sapiens, J82, 5.0 μM, read-out: Inhibition rate on human cancer cells) was 100%; in assay [2] (Homo sapiens, T24, 5.0 μM, read-out: Inhibition rate on human cancer cells), 100%; in assay [3] (Homo sapiens, 5.0 μM, read-out: Inhibition rate on human cancer cells) it was 100%; in [4] (Homo sapiens, PC-3, 5.0 μM, read-out: Inhibition rate on human cancer cells), 100%.

For `N.N.[Cl][Pt][Cl]` [Cisplatin, reference compound], the “Inhibition rate on human cancer cells” value was determined as 0% in assay [1] (J82, 0.25 μM); 0% in assay [1] (J82, 0.5 μM); 0% in assay [1] (J82, 1.0 μM); 5% in assay [1] (J82, 2.5 μM); 20% in [1] (J82, 5.0 μM); 0% in assay [2] (T24, 0.25 μM). The “Inhibition rate on human cancer cells” value in assay [2] (T24, 0.5 μM) amounted to 0%; in assay [2] (T24, 1.0 μM), 0%; in [2] (T24, 2.5 μM) it was 5%; in assay [2] (T24, 5.0 μM), 20%; in assay [5] (A549, 0.25 μM), 0%; in assay [5] (A549, 0.5 μM), 0%. For the same compound, the “Inhibition rate on human cancer cells” value in assay [5] (A549, 1.0 μM) is recorded as 5%; in assay [5] (A549, 2.5 μM) it was 30%; in assay [5] (A549, 5.0 μM), 80%; in assay [6] (H460, 0.25 μM), 0%; in [6] (H460, 0.5 μM), 0%; in assay [6] (H460, 1.0 μM), 5%. In addition, the “Inhibition rate on human cancer cells” value in [6] (H460, 2.5 μM) is reported as 30%; in assay [6] (H460, 5.0 μM), 90%; in assay [7] (H520, 0.25 μM), 0%; in assay [7] (H520, 0.5 μM), 5%; in assay [7] (H520, 1.0 μM) it was 20%; in assay [7] (H520, 2.5 μM), 30%. The “Inhibition rate on human cancer cells” value turned out to be 50% in assay [7] (H520, 5.0 μM); 5% with colon cancer HCT8 (HCT 8, 0.25 μM); 10% with colon cancer HCT8 (HCT 8, 0.5 μM); 50% in the assay with colon cancer HCT8 (HCT 8, 1.0 μM); 70% in the assay on colon cancer HCT8 (HCT 8, 2.5 μM); 90% in the assay on colon cancer HCT8 (HCT 8, 5.0 μM). Besides, the “Inhibition rate on human cancer cells” value in the assay with colon cancer HCT116 (HCT 116, 0.25 μM) is 0%; in the assay on colon cancer HCT116 (HCT 116, 0.5 μM), 0%; in the assay with colon cancer HCT116 (HCT 116, 1.0 μM), 5%; with colon cancer HCT116 (HCT 116, 2.5 μM), 20%; with colon cancer HCT116 (HCT 116, 5.0 μM) it was 50%; in the assay with colon cancer RkO (0.25 μM), 0%. In addition, the “Inhibition rate on human cancer cells” value with colon cancer RkO (0.5 μM) worked out at 5%; with colon cancer RkO (1.0 μM) it was 10%; in the assay with colon cancer RkO (2.5 μM) it was 50%; in the assay on colon cancer RkO (5.0 μM), 70%.

Take `CO/C=C(/C(=O)OC)c1ccccc1COc1cc(-c2ccc(Cl)cc2)nn1C` [pyraoxystrobin]: the “Inhibition rate on human cancer cells” value was found to be 70% in assay [1] (J82, 0.25 μM); 100% in assay [1] (J82, 0.5 μM); 100% in [1] (J82, 1.0 μM); 100% in assay [1] (J82, 2.5 μM); 100% in assay [1] (J82, 5.0 μM); 100% in assay [2] (T24, 0.25 μM). Also, the “Inhibition rate on human cancer cells” value in assay [2] (T24, 0.5 μM) is reported as 100%; in assay [2] (T24, 1.0 μM) it was 100%; in assay [2] (T24, 2.5 μM), 100%; in assay [2] (T24, 5.0 μM), 100%; in assay [3] (0.25 μM), 100%; in assay [3] (0.5 μM) it was 100%. In addition, the “Inhibition rate on human cancer cells” value was 100% in assay [3] (1.0 μM); 100% in assay [3] (2.5 μM); 100% in [3] (5.0 μM); 100% in assay [4] (PC-3, 0.25 μM); 100% in assay [4] (PC-3, 0.5 μM); 100% in assay [4] (PC-3, 1.0 μM). Also, the “Inhibition rate on human cancer cells” value in [4] (PC-3, 2.5 μM) stood at 100%; in assay [4] (PC-3, 5.0 μM) it was 100%.

Take `CO/C=C(/C(=O)OC)c1ccccc1Oc1cc(Oc2ccccc2C#N)ncn1` [Azoxystrobin]: the “Inhibition rate on human cancer cells” value in assay [1] (J82, 5.0 μM) was 0%; in assay [2] (T24, 5.0 μM), 0%; in assay [3] (5.0 μM), 0%; in assay [4] (PC-3, 5.0 μM), 0%.
